Measurements from article PMC10233092, “Selective Janus kinase 1 inhibition resolves inflammation and restores hair growth offering a viable treatment option for alopecia areata” (Skin Health and Disease, 2023).
≈ marks a conversion by molar mass, not a printed value. Where “and” joins values, the source holds several entries; their conditions need not be identical. Equal values may be shown once.

Experiments:
[1] = Solubility in phosphate buffer; format: physicochemical; conditions: pH 7.4, aqueous buffer
Source text: TABLE 1 In vitro potency and selectivity of JAK inhibitors | column: Solubility (μM) ^c

IL‐13, STAT6‐Luc = assay: IL-13-induced JAK-STAT6-luciferase assay in U937 monocytes; format: cell-based; conditions: Homo sapiens, U-937, interleukin at EC80
[2] = tested on: Human Peripheral Blood Mononuclear Cells (PBMCs); assay: Cytokine release from anti-CD3-stimulated human PBMCs; format: cell-based; conditions: during stimulation with anti‐CD3, 40–48 h
Protocol: Human Peripheral Blood Mononuclear Cells (PBMCs) were isolated by Sepmate technique (Stemcell Technologies) from heparinized venous blood from healthy volunteers. Primary human CD8^+ T‐cells were further isolated using a CD8^+ T cell Isolation Kit according to protocol (Miltenyi Biotec). Experiments were approved by the local ethical committee in Gothenburg (033‐11).
Soluble anti‐CD28 were added to the CD8^+ cultures to facilitate co‐stimulation. After 40–48 h, supernatants were harvested for mediator analysis and the cells were washed and resuspended in RLT buffer (Qiagen) for RNA isolation.
Analysis of human cytokine panels was carried out using a Luminex assay kit from Merck Millipore (Cat# HCYTMAG‐60K‐PX41) and Mesoscale Discovery (MSD) immunoassay kits (Cat# K211AEB‐2 and K15049D) as recommended in the respective supplier protocols.

IL‐4, STAT6‐Luc = assay: IL-4-induced JAK-STAT6-luciferase assay in U937 monocytes; format: cell-based; conditions: Homo sapiens, U-937, interleukin at EC80
AA mice = tested on: AA mice; design: method as in PMID 25129481; conditions: 12 weeks of treatment, 3 months follow up; cited from earlier work
[3] = Plasma and skin exposure in treated AA mice; conditions: 3% cream topically, one hour after application

Compound	solubility [1] [µM]	IC50 (IL‐13, STAT6‐Luc) [nM]	release of IL‐1RA from PBMCs [2]	IC50 (IL‐4, STAT6‐Luc) [nM]	remission after treatment (AA mice)	unbound plasma exposure over IC50 [3]
N#CC[C@H](C1CCCC1)n1cc(-c2ncnc3[nH]ccc23)cn1 [Ruxolitinib, reference compound]	678 (≈ 208 µg/mL)	82	dramatically increased	110	induced stable remission	–
C[C@@H]1CCN(C(=O)CC#N)C[C@@H]1N(C)c1ncnc2[nH]ccc12 [Tofacitinib, reference compound]	> 1000	–	dramatically increased	–	induced stable remission	3–7 fold IC50 and 5 fold IC50
